Measured values as given in US12622974B2, “Siderophore-dihydrofolate reductase inhibitor conjugate and application thereof” (priority 2020, dated 2026).
Converted amounts (≈) assume the structure as drawn. *1 amine or outer side, *2 acyl side, *3 side chain or, on linkers, in order; H or OH if unused. Where a SMILES comes first, the peptide text is derived from it. [ ]: non-standard residue; d: D form. The star is where a group is joined. DAMPA = CN(Cc1cnc2nc(N)nc(N)c2n1)c1ccc(C(=O)*)cc1; Orn(N5-OH,N5-Ac) = CC(=O)N(O)CCC[C@H](N)C(=O)O; d(γGlu) = O=C(O)[C@@H](CCC(=O)[*:2])N[*:1]; Ethylenediamine = C(CN[*:2])N[*:1]

How the values were obtained:
[1] = system: clinical Streptococcus pneumoniae; assay: MIC determination on Streptococcus pneumoniae by the microdilution broth method; format: cell-based; settings: MH broth II with horse blood and 2,2-bipyridine, 16-18 hours; for MIC against Streptococcus pneumoniae 180918016-S27: clinical strain 180918016-S27; for MIC against Streptococcus pneumoniae 180918017-S28: clinical strain 180918017-S28
Protocol: The minimum inhibitory concentration (MIC) determination was performed in accordance with the standards of the American Association for Clinical and Laboratory Standards (CLSIM07). The MIC determination on Streptococcus pneumoniae was carried out by the microdilution broth method as follows. First, the compound to be tested was dissolved in water to prepare a high-concentration original solution, and then the compound original solution was sequentially diluted by 2 folds, a total of 10 times, to prepare 11 samples of 10× working solution. Then the gradient dilutions of the compound were transferred to a 96-well round bottom plate, the first to eleventh wells contained 10 μL of the 11 samples of 10× working solution prepared above, respectively, and 10 μL of water was added to the twelfth well as a solvent control.

[2] = Cytotoxicity test, MTT colorimetric method, L02; format: cell-based; settings: human
Protocol: (§1) The cytotoxicity test was carried out with the MTT colorimetric method. 5×10^3 cells in a logarithmic growth phase were inoculated in each well of a 96-well plate, and incubated overnight at 37° C. in an incubator (5% CO2). Then, different concentrations of compounds were added and the incubation further continued for 72 hours. Finally, 10 μL of MTT solution was added to each well and he incubation further continued for 4 hours. Then, the culture medium in each well was carefully aspirated. 100 μL of dimethyl sulfoxide was added to each well, and shaken at low speed for 10 minutes on a shaker to fully dissolve crystals. The absorbance of each well was measured at OD490 nm of the enzyme-linked immunometric meter. Three parallel measurements were designed for each group, in order to calculate the standard deviation. Cell survival rate=(compound-treated OD value−blank control OD value)/(normal control OD value−blank control OD value)*100%
(§2) The toxicity of each compound was tested by measuring the half inhibitory concentrations (IC50) with respect to human normal hepatocytes (L02), human umbilical vein endothelial cells (HUVEC) and human renal epithelial cells (293T), respectively.

[3] = Cytotoxicity test, MTT colorimetric method, HUVEC; format: cell-based; settings: human
Protocol: as §1, §2

[4] = Cytotoxicity test, MTT colorimetric method, 293T; format: cell-based; settings: human
Protocol: as §1, §2

[5] = system: human normal hepatocytes, human umbilical vein endothelial cells and human renal epithelial cells; assay: Cytotoxicity test, overall statement across the three normal human cell types; format: cell-based; settings: L02, HUVEC and 293T; compared with methotrexate
Protocol: as §1, §2

Enterococcus = settings: cited from earlier work
Streptococcus pneumoniae = settings: background statement; cited from earlier work

## CC(=O)N(O)CCC[C@H](NC(=O)[C@H](CCCN(O)C(C)=O)NC(=O)[C@@H](N)CCCN(O)C(C)=O)C(=O)NCCCCCNC(=O)CC[C@@H](NC(=O)c1ccc(N(C)Cc2cnc3nc(N)nc(N)c3n2)cc1)C(=O)O [3-4b]
[1]
  MIC against Streptococcus pneumoniae 180918016-S27: 0.0625
  MIC against Streptococcus pneumoniae 180918017-S28: <0.0078
[2]
  IC50 at 72 h: 34.6 ± 14.5 µM
[3]
  IC50 at 72 h: 31 ± 3.18 µM
[4]
  IC50 at 72 h: 8.82 ± 0.08 µM
[5]
  Toxicity to normal human cells (in words): least toxicity

## CC(=O)N(O)CCC[C@H](NC(=O)[C@H](CCCN(O)C(C)=O)NC(=O)[C@@H](N)CCCN(O)C(C)=O)C(=O)NCCOCCOCCNC(=O)CC[C@@H](NC(=O)c1ccc(N(C)Cc2cnc3nc(N)nc(N)c3n2)cc1)C(=O)O [3-4c]
[1]
  MIC against Streptococcus pneumoniae 180918016-S27: <0.0078
  MIC against Streptococcus pneumoniae 180918017-S28: <0.0078
[2]
  IC50 at 72 h: 5.46 ± 2.18 µM
[3]
  IC50 at 72 h: 4.52 ± 0.21 µM
[4]
  IC50 at 72 h: 2.66 ± 0.01 µM

## CC(=O)N(O)CCC[C@H](NC(=O)[C@H](CCCN(O)C(C)=O)NC(=O)[C@@H](N)CCCN(O)C(C)=O)C(=O)N[C@@H](CO)C(=O)NCCNC(=O)CC[C@@H](NC(=O)c1ccc(N(C)Cc2cnc3nc(N)nc(N)c3n2)cc1)C(=O)O [3-4f] (H-[Orn(N5-OH,N5-Ac)][Orn(N5-OH,N5-Ac)][Orn(N5-OH,N5-Ac)]S-{Ethylenediamine-d(γGlu)-DAMPA})
[1]
  MIC against Streptococcus pneumoniae 180918016-S27: <0.0078
  MIC against Streptococcus pneumoniae 180918017-S28: <0.0078
[2]
  IC50 at 72 h: 14.7 ± 1.7 µM
[3]
  IC50 at 72 h: 19.2 ± 0.54 µM
[4]
  IC50 at 72 h: 3.93 ± 0.03 µM

## CC(=O)N(O)CCC[C@H](NC(=O)[C@H](CCCN(O)C(C)=O)NC(=O)[C@@H](N)CCCN(O)C(C)=O)C(=O)NCCNC(=O)[C@H](CO)NC(=O)[C@H](CO)NC(=O)CC[C@@H](NC(=O)c1ccc(N(C)Cc2cnc3nc(N)nc(N)c3n2)cc1)C(=O)O [3-4g]
[1]
  MIC against Streptococcus pneumoniae 180918016-S27: <0.0078
  MIC against Streptococcus pneumoniae 180918017-S28: <0.0078
[2]
  IC50 at 72 h: 27 ± 2.88 µM
[3]
  IC50 at 72 h: 18.4 ± 1.82 µM
[4]
  IC50 at 72 h: 5.38 ± 0.65 µM
[5]
  Toxicity to normal human cells (in words): least toxicity

## CC(=O)N(O)CCC[C@H](NC(=O)[C@H](CCCN(O)C(C)=O)NC(=O)[C@@H](N)CCCN(O)C(C)=O)C(=O)NCCNC(=O)[C@H](CCCCN)NC(=O)CC[C@@H](NC(=O)c1ccc(N(C)Cc2cnc3nc(N)nc(N)c3n2)cc1)C(=O)O [3-4h]
[2]
  IC50 at 72 h: 34.5 ± 4.01 µM
[3]
  IC50 at 72 h: 16.6 ± 2 µM
[4]
  IC50 at 72 h: 10.6 ± 1.34 µM
[5]
  Toxicity to normal human cells (in words): least toxicity

## CC(=O)N(O)CCCC[C@H](NC(=O)[C@H](CCCCN(O)C(C)=O)NC(=O)[C@@H](N)CCCCN(O)C(C)=O)C(=O)NCCOCCOCCNC(=O)CC[C@H](NC(=O)c1ccc(N(C)Cc2cnc3nc(N)nc(N)c3n2)cc1)C(=O)O [3-4v]
[1]
  MIC against Streptococcus pneumoniae 180918016-S27: <0.0078
  MIC against Streptococcus pneumoniae 180918017-S28: <0.0078

## CCC(=O)N(O)CCCC[C@H](NC(=O)[C@H](CCCCN(O)C(=O)CC)NC(=O)[C@@H](N)CCCCN(O)C(=O)CC)C(=O)NCCOCCOCCNC(=O)CC[C@H](NC(=O)c1ccc(N(C)Cc2cnc3nc(N)nc(N)c3n2)cc1)C(=O)O [3-4x]
[1]
  MIC against Streptococcus pneumoniae 180918016-S27: <0.0078
  MIC against Streptococcus pneumoniae 180918017-S28: <0.0078

## CN(Cc1cnc2nc(N)nc(N)c2n1)c1ccc(C(=O)N[C@@H](CCC(=O)O)C(=O)O)cc1 [Methotrexate, reference compound]
[1]
  MIC against Streptococcus pneumoniae 180918016-S27: 0.125
  MIC against Streptococcus pneumoniae 180918017-S28: 0.03125
[2]; L02 cells (human normal hepatocytes), L02 cells, MTT, 72 hours, read-out: Cytotoxicity IC50 L02
  IC50 at 72 h: 0.01 µM
[3]; HUVEC (human umbilical vein endothelial cells), HUVEC cells, MTT, 72 hours, read-out: Cytotoxicity IC50 HUVEC
  IC50 at 72 h: < 0.0781 µM
[4]; 293T cells (human renal epithelial cells), 293T cells, MTT, 72 hours, read-out: Cytotoxicity IC50 293T
  IC50 at 72 h: 0.01 µM
Enterococcus
  MIC against Enterococcus: 4 µM (≈ 1.82 µg/mL)
Streptococcus pneumoniae
  MIC against Streptococcus pneumoniae: 0.5 µM (≈ 0.227 µg/mL)

## CN[C@H](CC(C)C)C(=O)N[C@H]1C(=O)N[C@@H](CC(N)=O)C(=O)N[C@H]2C(=O)N[C@H]3C(=O)N[C@H](C(=O)N[C@H](C(=O)O)c4cc(O)cc(O)c4-c4cc3ccc4O)[C@H](O)c3ccc(c(Cl)c3)Oc3cc2cc(c3O[C@@H]2O[C@H](CO)[C@@H](O)[C@H](O)[C@H]2O[C@H]2C[C@](C)(N)[C@H](O)[C@H](C)O2)Oc2ccc(cc2Cl)[C@H]1O [Vancomycin, reference compound]
[1]
  MIC against Streptococcus pneumoniae 180918016-S27: 0.25
  MIC against Streptococcus pneumoniae 180918017-S28: 0.125
